In US4579730A (Hadassah Medical Organization, priority 1983, dated 1986):

How the values were obtained:
[1] = Function of sodium cholate as bile acid carrier of insulin and protease inhibitor agent
blood glucose levels = details: insulin mixed with bile salts, through the rectum, dose of 48 μ/kg; cited from earlier work
diabetic dog = test: Glucose levels in a diabetic dog after administration of insulin (oral enterocoated capsule; intramuscular comparison); format: in vivo; details: 0.5 u/kg intramuscular injection

C[C@H](CCC(=O)[O-])[C@H]1CC[C@H]2[C@@H]3[C@H](O)C[C@@H]4C[C@H](O)CC[C@]4(C)[C@H]3C[C@H](O)[C@]12C.[Na+] [sodium cholate]
function as bile acid carrier of the insulin and protease inhibitor agent [1]: can simultaneously function both as the bile acid carrier of the insulin and the protease inhibitor agent

Insulin
reduction of blood glucose levels (blood glucose levels): approximately 50% | Glucose (diabetic dog; 0 min): 28.7 mm | Glucose (diabetic dog; 10 min): 23.3 mm | Glucose (diabetic dog; 20 min): 21.5 mm | Glucose (diabetic dog; 30 min): 19.9 mm | Glucose (diabetic dog; 45 min): 15.6 mm | Glucose (diabetic dog; 60 min): 12.9 mm | Glucose (diabetic dog; 75 min): 10.9 mm | Glucose (diabetic dog; 90 min): 8.5 mm | Glucose (diabetic dog; 120 min): 6.5 mm | Glucose (diabetic dog; 150 min): 6.4 mm | Glucose (diabetic dog; 180 min): 6.5 mm
